Where “and” joins values, the source holds several entries; their conditions need not be identical. Equal values may be shown once.
How the values were obtained:
Format in all cases: cell-based, rat
TUNEL-positive RGCs = assay: Ex vivo pressure-loaded retinas, TUNEL staining (apoptosis); conditions: 75 mmHg, 1 μM, single values
Method: Rat ex vivo Eyecup Preparation—Rat ex vivo eyecups were prepared from 28-32 day old male Sprague-Dawley rats (Charles River Laboratories International Inc., Wilmington, MA). The anterior half of the enucleated eyes was carefully removed to make eyecup preparations. Eyecups were placed at the bottom of a 100 ml glass beaker filled with aCSF (artificial cerebrospinal fluid) containing (in mM): 124 NaCl, 5 KCl, 2 MgSO4, 2 CaCl2, 1.25 NaH2PO4, 22 NaHCO3, and 10 glucose, and incubated at 30° C. for 24 hours using a closed pressure-loading system (FIG. 1C). pH was maintained at 7.35 to 7.40. […]
Acutely prepared eyecups were incubated in gassed aCSF for at least 1 h at 30° C. before pressure loading. […] For pressure loading, the 95% O2-5% CO2 gas mixture was infused until the pressure reading given by a manometer reached the appropriate level. The pressure was then locked by adjusting the control dial of the effusion valve, and monitored continuously for 24 h at 30° C.
Apoptosis—To visualize apoptotic cells, a DeadEnd™ Colorimetric TUNEL (TdT-mediated dUTP Nick-End Labeling) System (Promega, Madison, WI) was used according to the manufacturer's instructions. […] After the length of each retinal section was measured (Image-Pro Plus software), the cells were counted in the whole section length and the number of cells was normalized per 200 μm of retinal section. […]

LC3-II = assay: Ex vivo pressure-loaded retinas, Western blot of LC3-II; conditions: ex vivo; for LC3-II expression (FIG. 2Q), Average / LC3-II expression (FIG. 2Q), individual experiments 1-4: relative units, control = 1.00, normalized to β-actin
Method: (§1) Rat ex vivo Eyecup Preparation—Rat ex vivo eyecups were prepared from 28-32 day old male Sprague-Dawley rats (Charles River Laboratories International Inc., Wilmington, MA). The anterior half of the enucleated eyes was carefully removed to make eyecup preparations. Eyecups were placed at the bottom of a 100 ml glass beaker filled with aCSF (artificial cerebrospinal fluid) containing (in mM): 124 NaCl, 5 KCl, 2 MgSO4, 2 CaCl2, 1.25 NaH2PO4, 22 NaHCO3, and 10 glucose, and incubated at 30° C. for 24 hours using a closed pressure-loading system (FIG. 1C). pH was maintained at 7.35 to 7.40. In the closed-pressure system, a glass beaker with the eyecup was placed at the bottom of an acrylic pressure chamber (2,000 ml volume). A 95% O2-5% CO2 gas mixture was delivered through disposable plastic tubing with an infusion valve and a control dial on the lid of the pressure chamber and an air filter (Cat #SLGP033RS, Merck Millipore, Billerica, MA). The plastic tubing delivering the gas terminated 1 cm above the bottom of the beaker.
(§2) Acutely prepared eyecups were incubated in gassed aCSF for at least 1 h at 30° C. before pressure loading. In some experiments, AlloP (1 μM), ent-AlloP (1 μM), and 3-MA (10 mM) were dissolved in aCSF at the time of experiment and administered by bath perfusion. Eyecup preparations were treated with these drugs for 1 h at 30° C. before pressure loading. For pressure loading, the 95% O2-5% CO2 gas mixture was infused until the pressure reading given by a manometer reached the appropriate level. The pressure was then locked by adjusting the control dial of the effusion valve, and monitored continuously for 24 h at 30° C.
(§3) Western Blot Analysis—At the end of each experiment, the posterior segments of the eye were placed on a flat cutting surface and immersed in ice-cold aCSF. With a surgical blade, the retina was carefully and gently detached from the sclera with a fine forceps. The isolated retinas were frozen at −80° C. Retinas were then homogenized in lysis buffer solution (CelLytic MT; Sigma-Aldrich, Inc.) with protease inhibitor cocktail (Sigma-Aldrich, Inc.), prepared according to the manufacturer's instructions. The tissue extracts were ultrasonicated and clarified by centrifugation at 12,000 g for 20 minutes at 4° C. The protein concentrations in supernatants were assayed (Quant-iT assay kit; Invitrogen Corp., Carlsbad, CA). Twenty micrograms of retinal extract were subjected to SDS polyacrylamide gel electrophoretic analysis. The proteins were then transferred to a PVDF. Immunoblots by polyclonal rabbit anti-LC3B antibody (MBL Life Science) or anti-SQSTMl/p62 mouse monoclonal antibody (Abcam) were visualized using WesternBreeze Chemiluminescent Immunodetection system (Invitrogen) with the exposure time to autoradiograph film (MXJB Plus; Kodak, Rochester, NY) adjusted to avoid over- or undersaturation. Precision Plus Protein™ Western Standards (Bio-Rad, Hercules, CA) followed by Precision Protein™ strep Tactin-AP conjugate (Bio-Rad) was used for a molecular marker of LC3. MagicMark™ XP Western Protein Standard (Invitrogen, Carlsbad, CA) was used for a molecular marker of p62. Immunoblot data are normalized to β-actin levels in the same sample.
(§4) The density of Western blot bands was quantified using Image-Pro Plus software. Quantification was adjusted to protein expression at 10 mmHg after normalization to the β-actin band at each pressure, and the relative gray-scale value was calculated by densitometric analysis of the obtained bands. At least four independent experiments were performed for each condition, and the results are presented as relative units numerically. Differences in expression levels were evaluated using Wilcoxon Rank-Sum Test, Tukey's or Dunnett's multiple comparison test. Sample numbers were four to five per each experimental condition.

p62 = assay: Ex vivo pressure-loaded retinas, Western blot of p62; conditions: ex vivo, 75 mmHg; for p62 expression (FIG. 2S), individual experiments 1-5: 1 μM, relative units, 10 mmHg = 1.00
Method: as §1, §2
as §3, with “MagicMark™ XP Western Protein Standard (Invitrogen, Carlsbad, CA) was used for a molecular marker of p62. Immunoblot data are normalized to β-actin levels in the same sample.” left out
as §4, with “At least four independent experiments were performed for each condition, and the results are presented as relative units numerically.” left out, “Sample numbers were four to five per each experimental condition.” left out

| SMILES | TUNEL Staining (number of TUNEL-positive RGCs), individual areas 1-5 (TUNEL-positive RGCs) | LC3-II expression (FIG. 2Q), Average (LC3-II; Average of 4) | LC3-II expression (FIG. 2Q), individual experiments 1-4 (LC3-II; single values) | p62 expression (FIG. 2S), individual experiments 1-5 (p62; single values) | LC3 expression after 3-MA treatment (FIG. 3F), Average (LC3-II; 75 mmHg, 1 μM ent-AlloP, 10 mM 3-MA, relative, ent-AlloP + 3-MA = 1.00, Average of 4) | LC3 expression after 3-MA treatment (FIG. 3F), individual experiments 1-4 (LC3-II; 75 mmHg, 1 μM ent-AlloP, 10 mM 3-MA, relative, ent-AlloP + 3-MA = 1.00, single values) | p62 expression after 3-MA treatment (FIG. 3H), Average (p62; 1 μM ent-AlloP, 10 mM 3-MA, relative, ent-AlloP = 1.00, Average of 4) | p62 expression after 3-MA treatment (FIG. 3H), individual experiments 1-4 (p62; 1 μM ent-AlloP, 10 mM 3-MA, relative, ent-AlloP = 1.00, single values) |
| --- | --- | --- | --- | --- | --- | --- | --- | --- |
| CC(=O)[C@H]1CC[C@H]2[C@@H]3CC[C@H]4C[C@H](O)CC[C@]4(C)[C@H]3CC[C@]12C [AlloP, allopregnanolone] | 7 per 200 μm of retina section and 0 per 200 μm of retina section (3×) and 2 per 200 μm of retina section | 3.62 | 4.31 and 3.47 and 3.34 (2×) | 1.96 and 2.18 and 2.05 and 0.84 and 2.81 |  |  |  |  |
| CC(=O)[C@@H]1CC[C@@H]2[C@H]3CC[C@@H]4C[C@@H](O)CC[C@@]4(C)[C@@H]3CC[C@]21C [ent-AlloP, ent-allopregnanolone] | 10 per 200 μm of retina section and 1 per 200 μm of retina section and 0 per 200 μm of retina section (2×) and 2 per 200 μm of retina section | 5.25 | 6.14 and 5.17 and 4.48 and 5.22 | 0.92 and 0.40 and 1.00 and 0.28 and 1.08 | 9.00 | 11.20 and 8.89 and 7.78 and 8.11 | 1.00 | 1.00 |

From patent US20240041898A9, “NEUROSTEROIDS AND ENANTIOMERS THEREOF FOR THE PREVENTION AND TREATMENT OF NEURODEGENERATIVE CONDITIONS” (priority 2019, published 2024)
